Tests used:
[1] = Hydrolysis half-life by HPLC (percent hydrolysis) at room temperature
Protocol: (§1) Samples were incubated at room temperature in the indicated solution.
(§2) 2-(6-amino-3-iminio-4,5-disulfonato-3H-xanthen-9-yl)benzoate, comprising an SDP ester was prepared and compared to commercially available 2-(6-amino-3-iminio-4,5-disulfonato-3H-xanthen-9-yl)benzoate comprising a succinimidyl ester (SE) and 2-(6-amino-3-iminio-4,5-disulfonato-3H-xanthen-9-yl)benzoate comprising a TFP for hydrolytic stability in 25 mM Pi buffer pH 8.6.

[2] = buffer, pH 8.6
Protocol: as §1, §2

[3] = phosphate buffer with imidazole, pH 8.6

half-life ([1]; phosphate buffer, pH 8.6) | half-life ([1]; DMSO) | half-life ([1]; HEPES buffer, pH 8.2) | half-life ([1]; Tris buffer with NaN3, pH 8.6) | half-life ([1]; Tris buffer, pH 7) | half-life ([1]; Tris buffer, pH 8.6) | half-life ([1]; borate buffer, pH 8.6) | half-life [1, 3] | half-life ([1]; phosphate buffer, pH 7.2) | half-life ([1]; water) | half-life (hydrolytic stability) [2] | Compound
17 h |  |  |  |  |  |  |  |  |  |  | N=c1ccc2c(-c3cc(C(=O)Oc4c(Cl)cc(S(=O)(=O)O)cc4Cl)ccc3C(=O)O)c3ccc(N)c(S(=O)(=O)O)c3oc-2c1S(=O)(=O)O [Compound 104]
1.7 h |  |  |  |  |  |  |  |  |  |  | CC1(C)C(/C=C/C=C/C=C2\N(CCCS(=O)(=O)O)c3ccc(S(=O)(=O)[O-])cc3C2(C)CCCCCC(=O)Oc2c(Cl)cc(S(=O)(=O)O)cc2Cl)=[N+](CCCS(=O)(=O)O)c2ccc(S(=O)(=O)O)cc21 (stereo not shown) [Compound 114]
1.75 h |  |  |  |  |  |  |  |  |  |  | CC1(C)C(/C=C/C=C/C=C2\N(CCCS(=O)(=O)O)c3ccc(S(=O)(=O)[O-])cc3C2(C)CCCCCC(=O)ON2C(=O)CCC2=O)=[N+](CCCS(=O)(=O)O)c2ccc(S(=O)(=O)O)cc21 (stereo not shown) [Compound 121, reference compound]
28 h | 384 h | 159 h | 1.58 h | 1020 h | 77 h | 3.5 h | 0.633 h | 245 h | 504 h | 28 h | N=c1ccc2c(-c3ccc(C(=O)Oc4c(Cl)cc(S(=O)(=O)O)cc4Cl)cc3C(=O)O)c3ccc(N)c(S(=O)(=O)O)c3oc-2c1S(=O)(=O)O [Compound 102]
1.3 h |  | 6.5 h | < 0.0167 h | 13.9 h | 2.32 h | < 0.0833 h | < 0.0333 h | 2.88 h |  |  | N=c1ccc2c(-c3ccc(C(=O)Oc4c(F)c(F)cc(F)c4F)cc3C(=O)O)c3ccc(N)c(S(=O)(=O)O)c3oc-2c1S(=O)(=O)O [Compound 120, reference compound]

Source: patent US8586743B2, “Labeling reagents and methods of their use” (Life Technologies Corporation, priority 2007, dated 2013)
